Measured values reported in US11911442B2, “Use of soluble pro(renin) receptor to treat metabolic disorders and related conditions” (priority 2017, dated 2024).

How the values were obtained:
mouse model of NDI = experiment: Mouse model of NDI induced with V2R antagonist OPC; format: in vivo
Excerpt: Mice were placed in metabolic cages for assessment of daily water intake and urine output. (A) daily water intake (n=4 mice per group). (B) Daily urine output (n=4 mice per group). (C) Urine osmolality (n=4 mice per group). (D) Urinary sPRR excretion (n=4 mice per group). Data are shown as mean±SE. In A-C, #P<0.05 vs. OPC alone; in D*P<0.05 vs. control. (E) Schematic illustration of the mechanism of action of sPRR. In the lumen of the distal nephron, sPRR binds FZD8 in a receptor complex on the apical membrane of principal cells, resulting in the activation of β-catenin, which promotes cAMP accumulation, ultimately leading to increased AQP2 transcription and enhanced urine concentration.
In support of this notion, it has been shown that exposure of the CD cells to AVP stimulates the release of sPRR. FIG. 8E provides a schematic illustration of the mechanism of action of sPRR in the CD principal cells.
Urinary or medium sPRR was determined using a commercially sPRR enzyme immunoassay (EIA) kit (catalog no. JP27782; Immuno-Biological Laboratories) according to the manufacturer's instructions.

AQP2 = AQP2 expression in primary rat IMCD cells (quantitative RT-PCR, immunoblotting); format: cell-based; conditions: inhibitor 10 μM pretreatment 1 h, then 10 nM sPRR-His 24 h
Sprague-Dawley (SD) rats = experiment: Water balance and renal AQP2 in SD rats, basal and water deprivation; format: in vivo, rat
Procedure: FIGS. 6A-6H show a role of the Wnt/β-catenin pathway in urine-concentrating capability in rats. SD Rats were administered vehicle, OMP, or XAV and were placed in metabolic cages for assessment of the state of water metabolism at basal condition (A-C) or after 24-h WD (D-H) (n=5 rats per group). At basal the condition, water intake (A), urine volume (B), and urine osmolality (C) were determined. (D-F) During 24-h WD, urine volume (D), urine osmolality (E), and body-weight (BW) changes (F) were monitored. (G and H) At the end of the experiment plasma osmolality (G) and Hct (H) were measured. *P<0.05 vs. control; #P<0.05 vs. WD alone.
FIGS. 7A-7F show an in vivo role of the Wnt/β-catenin pathway in the regulation of renal AQP2 expression during antidiuresis in rats. (A and B) To assess renal β-catenin activation by WD, the nuclear fraction of renal cortex (n=4 rats per group) (A) and the inner medulla (n=4 rats per group) (B) from control and dehydrated rats were subjected to immunoblotting analysis of β-catenin. (C-F) Immunoblotting analysis of AQP2 expression was performed on the renal cortex and the inner medulla of rats treated with vehicle or WD with (C) or without (D) OMP or with (E) or without (F) XAV (n=5 rats per group). Data are shown as mean±SE; *P<0.05 vs. control; #P<0.05 vs. WD. CO, cortex; IM, inner medulla.
To probe the in vivo role of β-catenin signaling in fluid homeostasis, OMP and XAV were administered to Sprague-Dawley (SD) rats under basal conditions and during […] water deprivation (WD) and evaluated their impact on water balance.
Renal tissues were lysed and subsequently sonicated. Protein concentrations were determined using Coomassie reagent. Forty micrograms of protein from each sample were denatured in boiling water, separated by SDS/PAGE, and transferred onto nitrocellulose membranes. Blots were blocked 1 h with 5% nonfat dry milk in Tris-buffered saline (TBS), followed by overnight incubation with primary antibody. After washing with TBS, blots were incubated with goat anti-rabbit/mouse HRP-conjugated secondary antibody and visualized using ECL. The blots were quantitated by using Image-Pro Plus (Media Cybernetics). The primary antibodies were goat anti-AQP2 antibody, rabbit anti-PRR-N antibody, and rabbit anti-FZD8 antibody (all from Santa Cruz), rabbit anti-V2R antibody (Abcam), and goat anti-β-catenin antibody (Novus).

Wnt/β-catenin pathway = experiment: Acute and chronic responses to AVP (cAMP, AQP2) in primary rat IMCD cells; format: cell-based; conditions: XAV pretreatment 1 h
Procedure: FIGS. 5A-5F show a distinct role of the Wnt/β-catenin pathway in the acute and chronic responses to AVP in primary rat IMCD cells. The IMCD cells were pretreated for 1 h with XAV and were treated for 30 min or 24 h with 10 nM AVP. (A) At 30 min of AVP treatment, the medium was assayed for cAMP using ELISA (n=6 per group). (B and C) Membrane fraction (n=6 per group) (B) and cytosolic fraction (n=6 per group) (C) were subjected to immunoblotting analysis of AQP2. (D-F) At 24 h, medium cAMP was determined (n=6 per group) (D), whole-cell lysates were subjected to immunoblotting analysis of AQP2 (n=6 per group) (E), and total RNA was subjected to quantitative RT-PCR analysis of AQP2 mRNA (n=4 per group) (F). Data are shown as mean±SE; *P<0.05 vs. control; #P<0.05 vs. AVP alone.
For sPRR signaling studies, primary IMCD cells were prepared from 4-wk-old SD rats as previously described (35). The cells were grown in Transwell plates (catalog no. 29442-074; VWR International) with DMEM/F-12 medium containing 10% (vol/vol) FBS, 0.5 μM 8-Br-cAMP, 130 mM NaCl, and 80 mM urea. […] At the end of the experiments, the medium was collected for biochemical assays.
The membrane and cytosolic fractions of proteins were extracted using a kit according to the manufacturer's instructions (catalog no. BSP002; Bio Basic Inc.).

Row | Compound | water intake, urine output, urine osmolality (mouse model of NDI; C57/BL6 mice, OPC via gavage 30 mg·kg^−1·d^−1 for 3 d) | urinary sPRR excretion (mouse model of NDI; OPC-treated mice) | sPRR-His-induced AQP2 protein expression, effect of inhibitor (AQP2) | WD-induced increase of AQP2 protein abundance in renal cortex and inner medulla (Sprague-Dawley (SD) rats; WD, immunoblotting) | water balance (urine volume, water intake, urine osmolality) (Sprague-Dawley (SD) rats; basal conditions, administration over 48 h) | plasma osmolality and hematocrit (Hct) (Sprague-Dawley (SD) rats; during 48-h WD) | urine osmolality (Sprague-Dawley (SD) rats; during 48-h WD) | urine volume (Sprague-Dawley (SD) rats; during 48-h WD) | weight loss (Sprague-Dawley (SD) rats; during 48-h WD) | rapid rise of cAMP and redistribution of AQP2 from the cytosol to the membrane in response to AVP (Wnt/β-catenin pathway; 30-min exposure to 10 nM AVP) | AVP-induced increases in cAMP level, total protein abundance and mRNA expression of AQP2 (Wnt/β-catenin pathway; 24 h 10 nM AVP)
1 | Cc1ccccc1C(=O)Nc1ccc(C(=O)N2CCCC(N(C)C)c3ccccc32)cc1 (centres unmarked) [OPC] | polydipsia, polyuria, and hypoosmotic urine | suppressed significantly | – | – | – | – | – | – | – | – | –
2 | Oc1nc(-c2ccc(C(F)(F)F)cc2)nc2c1CSCC2 [XAV939] | – | – | blunted | attenuated significantly | polyuria, polydipsia, and hypoosmotic urine | greater increases | decreased | increased | exaggerated | unaffected | effectively attenuated
